Reference: ChEMBL document CHEMBL4219147, “Design, synthesis, and structure-activity relationships of novel 4,7,12,12a-tetrahydro-5H-thieno[3',2':3,4]pyrido[1,2-b]isoquinoline and 5,8,12,12a-tetrahydro-6H-thieno[2',3':4,5]pyrido[2,1-a]isoquinoline derivatives as cellular activators of adenosine 5'-monophosphate-activated protein kinase …” (Bioorg Med Chem, 2018)
The source made the active and inactive calls. No cut-off for these calls is given here.

Columns and labels:
Rattus norvegicus [1] = species on record: Rattus norvegicus; experiment: Activation of AMPK in Sprague-Dawley rat primary hepatocytes assessed as inhibition of gluconeogenesis by measuring glucose production at 20 uM after 6 hrs by colorimetric assay (reference value: 100 +/- 3.5%); parameters: scale not given: the % may be the effect or the level left
L6 [2] = experiment: Activation of AMPK in differentiated Sprague-Dawley rat L6 myotube cells assessed as glucose consumption at 10 uM after 12 hrs by colorimetric assay (reference value: 100 +/- 1.8%); type: cell-based
L6 [3] = experiment: Activation of AMPK in Sprague-Dawley rat L6 myotube cells assessed as increase in acetyl-CoA carboxylase phosphorylation at Ser79 residues at 5 to 20 uM after 1 hr by Western blot analysis; type: cell-based
[4] = Cytotoxicity against Sprague-Dawley rat L6 cells assessed as cell viability at 20 uM after 12 hrs by SRB assay (reference value: 100 +/- 1.8%); type: cell-based; conditions: read-out: Activity
L6 [5] = experiment: Upregulation of AMPKalpha phosphorylation at Thr172 residues in Sprague-Dawley rat L6 myotube cells at 5 to 20 uM after 1 hr by Western blot analysis; type: cell-based
L6 [6] = experiment: Activation of AMPK in differentiated Sprague-Dawley rat L6 myotube cells assessed as glucose consumption at 5 uM after 12 hrs by colorimetric assay (reference value: 100 +/- 1.8%); type: cell-based
Rattus norvegicus [7] = species on record: Rattus norvegicus; experiment: Activation of AMPK in Sprague-Dawley rat primary hepatocytes assessed as inhibition of gluconeogenesis by measuring glucose production at 10 uM after 6 hrs by colorimetric assay (reference value: 100 +/- 3.5%); parameters: scale not given: the % may be the effect or the level left
L6 [8] = experiment: Inhibition of mitochondrial respiratory complex 1 in differentiated Sprague-Dawley rat L6 myotube cells assessed as mitochondrial membrane potential at 20 uM after 40 to 60 mins by JC-1 staining based fluorescence assay (reference value: 100 +/- 1.6%); type: cell-based; parameters: scale not given: the % may be the effect or the level left
L6 [9] = experiment: Activation of AMPK in differentiated Sprague-Dawley rat L6 myotube cells assessed as glucose consumption at 20 uM after 12 hrs by colorimetric assay (reference value: 100 +/- 1.8%); type: cell-based
[10] = Cytotoxicity against Sprague-Dawley rat L6 cells assessed as cell viability at 5 uM after 12 hrs by SRB assay (reference value: 100 +/- 1.8%); type: cell-based; conditions: read-out: Activity
Rattus norvegicus [11] = species on record: Rattus norvegicus; experiment: Activation of AMPK in Sprague-Dawley rat primary hepatocytes assessed as inhibition of gluconeogenesis by measuring glucose production after 6 hrs by colorimetric assay
L6 [12] = experiment: Inhibition of mitochondrial respiratory complex 1 in differentiated Sprague-Dawley rat L6 myotube cells assessed as mitochondrial membrane potential at 5 uM after 40 to 60 mins by JC-1 staining based fluorescence assay (reference value: 100 +/- 1.6%); type: cell-based; parameters: scale not given: the % may be the effect or the level left
L6 [13] = experiment: Inhibition of mitochondrial respiratory complex 1 in differentiated Sprague-Dawley rat L6 myotube cells assessed as mitochondrial membrane potential at 10 uM after 40 to 60 mins by JC-1 staining based fluorescence assay (reference value: 100 +/- 1.6%); type: cell-based; parameters: scale not given: the % may be the effect or the level left
L6 [14] = experiment: Activation of AMPK in differentiated Sprague-Dawley rat L6 myotube cells assessed as increase in glucose consumption at 10 uM after 12 hrs by colorimetric assay relative to control; type: cell-based
[15] = Cytotoxicity against Sprague-Dawley rat L6 cells assessed as cell viability at 10 uM after 12 hrs by SRB assay (reference value: 100 +/- 1.8%); type: cell-based; conditions: read-out: Activity
Rattus norvegicus [16] = species on record: Rattus norvegicus; experiment: Activation of AMPK in Sprague-Dawley rat primary hepatocytes assessed as inhibition of gluconeogenesis by measuring glucose production at 5 uM after 6 hrs by colorimetric assay (reference value: 100 +/- 3.5%); parameters: scale not given: the % may be the effect or the level left
L6 [17] = experiment: Activation of AMPK in Sprague-Dawley rat L6 myotube cells assessed as increase in acetyl-CoA carboxylase phosphorylation at Ser79 residues at 10 uM after 1 hr by Western blot analysis; type: cell-based
L6 [18] = experiment: Upregulation of AMPKalpha phosphorylation at Thr172 residues in Sprague-Dawley rat L6 myotube cells at 10 uM after 1 hr by Western blot analysis; type: cell-based

Compound | Activity (Rattus norvegicus [1]) [%] | Activity (L6 [2]) [%] | Activity (L6 [3]) | viability at 12 h, 20 µM [4] [%] | Activity (L6 [5]) | Activity (L6 [6]) [%] | Activity (Rattus norvegicus [7]) [%] | Activity (L6 [8]) [%] | Activity (L6 [9]) [%] | viability at 12 h, 5 µM [10] [%] | inhibition (Rattus norvegicus [11]) | Activity (L6 [12]) [%] | Activity (L6 [13]) [%] | fold change (FC) (L6 [14]) | viability at 12 h, 10 µM [15] [%] | Activity (Rattus norvegicus [16]) [%] | Activity (L6 [17]) | Activity (L6 [18])
c1ccc(Cc2cc3c(s2)CC2c4cc5c(cc4CCN2C3)OCO5)cc1 (stereo not given) | 40.9 | 242 | Active | 101 | Active | 194 | 48.2 | 79.7 | 264 | 102 | Dose-dependent effect | 98.2 | 90.7 | 2.4 | 101 | 59.5 | – | –
CCCCc1cc2c(s1)CC1c3cc4c(cc3CCN1C2)OCO4 (stereo not given) | 53.7 | 287 | Active | 97.7 | Active | 265 | 55.6 | 57.5 | 285 | 102 | Dose-dependent effect | 75.1 | 68.9 | 2.9 | 98.8 | 58.3 | – | –
COc1ccc2cc3[n+](cc2c1OC)CCc1cc2c(cc1-3)OCO2 [BERBERINE CHLORIDE] | – | 228 | – | – | – | – | – | 84.5 | – | – | – | 91.5 | 85.8 | – | 100 | 57.6 | Active | Active
